# Data from patent US12329736B2, “Carboxylate ligand modified ferric iron hydroxide compositions for use in the treatment or prevention of iron deficiency associated with liver diseases” (Nemysis Ltd., priority 2020, dated 2025).
# “Also recorded” adds a separate entry of the source.
# Conditions: Wistar rats
# Text: 5-6 week old Wistar rats (n=72; 36 female and 36 male) were housed in harmonious social groups (2-3 animals per cage and sex) in a light- and temperature-controlled room with ad libitum access to standard pellet diet and water. Rats were acclimatised for 7 days for male rats and 14 days for female rats, prior to treatment commencement.
# Animals were gavaged for 28 days (n=36; 18 female and 18 male) or 90 days (n=36; 18 female and 18 male). Following necropsy, livers were harvested, flash frozen in liquid nitrogen and stored at −80° C. until further analysis.
# Livers were thawed at room temperature, and a sample of approximately 800 mg was cut out, cleaned from any fat and weighed on a balance accurate to 0.0001 g. Weighed samples were digested in concentrated HNO3 (Nitric acid ≥65%, 84380-2.5L-M, Merck) and H2O2 (Hydrogen peroxide solution, 16911-1L-F, Sigma-Aldrich) at a 5:1 ratio. Samples were digested at room temperature for 24 h and if necessary at 40° C. for another 24 h to allow complete digestion. Following complete digestion samples were diluted 1:4 in UHP water to achieve a final HNO3 concentration of 6-8%. Total elemental analysis for iron was carried out on a Jobin Yvon Horiba Ultima 2C ICP-OES (Instrument SA, Longjumeau, France), equipped with a concentric nebulizer and cyclonic spray chamber. Analysis was by peak profile with a window size of 0.025 nm with 21 increments per profile and an integration time of 0.5 seconds per increment. Analytical line was 259.940 nm. Samples and blanks were analysed with iron standards (0-20 mg/L) prepared in 6-8% HNO3, using a 1000 mg/L Fe ICP solution. Pooled-sample standards (0-20 mg/L) were prepared, using a pool of all final digests, to allow detection of possible matrix effects. Each sample/blank/standard was analysed in triplicates and the average value used for the calculations. The sample induction system (sample tubing, nebuliser and spray chamber) was thoroughly flushed between samples, blanks and standards.
# Statistical analyses were performed in GraphPad Prism 6. One-way ANOVA, followed by Tukey's multiple comparison's test, was used to assess the treatment effect, irrespective of the length of treatment. Two-way ANOVA was used to assess the effects of time (i.e. treatment length), treatment and the time x treatment interactions, followed by Bonferroni's multiple comparisons test. Two-way ANOVA was also used to assess the effect of sex, treatment and the sex x treatment interaction. P values <0.05 were considered significant in all analyses. Data are presented as means±SDs.
smiles,measurement,setting,value
"O=S(=O)([O-])[O-].[Fe+2] [FeSO4, ferrous sulphate]",Accumulation of liver iron over time with repeated oral dosing,"28 days versus 90 days of oral administration, FIG. 1B",iron seems to accumulate over time; also recorded: does accumulate
same,Total iron content in liver samples versus vehicle control group,"daily oral gavage 28 or 90 days, IHAT 28.5 mg iron/kg, FeSO4 20.00 mg iron/kg, FIG. 1A",significantly increased; also recorded: significant difference
